Experiments:
[1] = target: T1, Recombinant STAT6 protein (STAT6(W123-T658)) (Homo sapiens, UniProt P42226); test: STAT6 Fluorescence Polarization (FP) Assay; assay type: binding; settings: STAT6(W123-T658) 250 nM, probe 5-FAM-ApYKPFQDLI-NH2 2 nM, 45-minute incubation
T1 construct: Recombinant STAT6 protein (STAT6(W123-T658))
T1 sequence (P42226 123-658): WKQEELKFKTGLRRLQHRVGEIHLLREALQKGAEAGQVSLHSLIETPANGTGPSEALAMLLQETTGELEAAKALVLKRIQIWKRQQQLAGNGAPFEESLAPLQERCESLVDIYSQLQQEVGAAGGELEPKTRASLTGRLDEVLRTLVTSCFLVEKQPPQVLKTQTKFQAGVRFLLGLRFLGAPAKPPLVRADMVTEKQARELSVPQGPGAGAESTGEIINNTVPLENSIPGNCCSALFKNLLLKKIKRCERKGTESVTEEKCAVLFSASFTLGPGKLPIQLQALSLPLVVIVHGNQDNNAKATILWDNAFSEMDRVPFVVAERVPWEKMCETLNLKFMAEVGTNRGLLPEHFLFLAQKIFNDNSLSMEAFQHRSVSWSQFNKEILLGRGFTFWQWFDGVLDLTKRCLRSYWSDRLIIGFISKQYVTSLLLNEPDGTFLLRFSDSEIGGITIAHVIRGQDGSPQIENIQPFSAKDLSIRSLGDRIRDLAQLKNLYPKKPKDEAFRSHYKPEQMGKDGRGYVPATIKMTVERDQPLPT
Procedure, shortened: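 Displacement of a fluorescent phosphotyrosine peptide (5-FAM-ApYKPFQDLI-NH2, 2 nM) from STAT6(W123-T658) (250 nM), 1% DMSO, pH 7.4 HEPES buffer. After 45 min at room temperature, polarization (mP) was plotted versus log compound concentration and fitted by nonlinear regression to give IC50.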

[2] = target: T2, Recombinant STAT3 protein (STAT3(G127-I722)) (Homo sapiens, UniProt P40763); test: STAT3 Fluorescence Polarization (FP) Assay; assay type: binding; settings: STAT3(G127-I722) 25 nM, probe 5-FAM-GpYLPQTV-NH2 2 nM, 45-minute incubation
T2 construct: Recombinant STAT3 protein (STAT3(G127-I722))
T2 sequence (P40763 127-722): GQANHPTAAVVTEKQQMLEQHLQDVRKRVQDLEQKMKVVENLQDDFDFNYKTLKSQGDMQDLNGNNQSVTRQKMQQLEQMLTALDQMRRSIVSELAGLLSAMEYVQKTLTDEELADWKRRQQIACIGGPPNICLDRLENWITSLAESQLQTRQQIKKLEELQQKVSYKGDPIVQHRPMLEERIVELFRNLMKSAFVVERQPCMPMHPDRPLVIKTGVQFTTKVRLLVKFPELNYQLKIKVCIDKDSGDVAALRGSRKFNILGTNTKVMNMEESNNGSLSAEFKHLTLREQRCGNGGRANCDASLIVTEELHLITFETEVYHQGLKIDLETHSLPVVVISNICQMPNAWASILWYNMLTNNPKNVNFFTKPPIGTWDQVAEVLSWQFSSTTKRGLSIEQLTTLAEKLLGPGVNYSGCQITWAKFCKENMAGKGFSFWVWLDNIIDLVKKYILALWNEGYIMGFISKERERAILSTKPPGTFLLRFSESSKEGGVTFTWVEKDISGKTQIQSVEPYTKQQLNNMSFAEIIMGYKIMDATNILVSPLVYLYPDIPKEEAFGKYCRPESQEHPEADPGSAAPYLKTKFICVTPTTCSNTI
Procedure, shortened: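 Fluorescence polarization after a 45-min room-temperature incubation measured compound displacement of a 2 nM fluorescein-labelled phosphotyrosine peptide (5-FAM-GpYLPQTV-NH2) from 25 nM recombinant STAT3(G127-I722). Buffer was 10 mM HEPES pH 7.4 with 1% DMSO final. IC50s were fitted by nonlinear regression of mP against log concentration.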

| IC50 [1] [µM] | IC50 [2] [µM] | Compound |
| --- | --- | --- |
| ≤ 0.3 | > 10 | CCc1ccc2onc(C(=O)N3CC[C@H]4CC[C@@H](C(=O)N5CCOCC56CC6)N4C(=O)[C@@H](NC(=O)c4ccc5ccc(C(F)P(=O)(O)O)cc5c4)C3)c2c1 (stereo partly drawn) [Compound 374, ((7-(((5S,8S,10aR)-3-(5-ethylbenzo[d]isoxazole-3-carbonyl)-6-oxo-8-(7-oxa-4-azaspiro[2.5]octane-4-carbonyl)decahydropyrrolo[1,2-a][1,5]diazocin-5-yl)carbamoyl)naphthalen-2-yl)fluoromethyl) phosphonic acid] |
| 0.3 to 3 | > 10 | Cc1ccc2onc(C(=O)N3CC[C@H]4CC[C@@H](C(=O)N5CCOCC5)N4C(=O)[C@@H](NC(=O)c4ccc5ncc(C(F)P(=O)(O)O)cc5c4)C3)c2c1 (stereo partly drawn) [Compound 376, (fluoro(6-(((5S,8S, 10aR)-3-(5-methylbenzo[d]isoxazole-3-carbonyl)-8-(morpholine-4-carbonyl)-6-oxodecahydropyrrolo [1,2-a][1,5]diazocin-5-yl)carbamoyl)quinolin-3-yl)methyl)phosphonic acid] |
| ≤ 0.3 | > 10 | Cc1ccc2onc(C(=O)N3CC[C@H]4CC[C@@H](C(=O)N5CC6CCC(C5)O6)N4C(=O)[C@@H](NC(=O)c4ccc5ccc([C@H](F)P(=O)(O)O)cc5c4)C3)c2c1 [Compound 377, ((1R)-(7-(((5S,8S,10aR)-8-(8-oxa-3-azabicyclo[3.2.1]octane-3-carbonyl)-3-(5-methylbenzo[d]isoxazole-3-carbonyl)-6-oxodecahydropyrrolo [1,2-a][1,5]diazocin-5-yl)carbamoyl)naphthalen-2-yl)fluoromethyl)phosphonic acid] |
| 0.3 to 3 | > 10 | Cc1ccc2onc(C(=O)N3CC[C@H]4CC[C@@H](C(=O)N5CCOCC5)N4C(=O)[C@@H](NC(=O)c4cc(C#N)c5ccc(CP(=O)(O)O)cc5c4)C3)c2c1 [Compound 378, ((5-cyano-7-(((5S,8S, 10aR)-3-(5-methylbenzo[d]isoxazole-3-carbonyl)-8-(morpholine-4-carbonyl)-6-oxodecahydropyrrolo [1,2-a][1,5]diazocin-5-yl)carbamoyl)naphthalen-2-yl)methyl) phosphonic acid] |
| 0.3 to 3 | > 10 | Cc1ccc2onc(C(=O)N3CC[C@H]4CC[C@@H](C(=O)N5CCOCC5)N4C(=O)[C@@H](NC(=O)c4ccc5c(F)cc(CP(=O)(O)O)cc5c4)C3)c2c1 [Compound 379, ((4-fluoro-7-(((5S,8S, 10aR)-3-(5-methylbenzo[d]isoxazole-3-carbonyl)-8-(morpholine-4-carbonyl)-6-oxodecahydropyrrolo [1,2-a][1,5]diazocin-5-yl)carbamoyl)naphthalen-2-yl)methyl)phosphonic acid] |
| ≤ 0.3 | > 10 | Cc1ccc2onc(C(=O)N3CC[C@H]4CC[C@@H](C(=O)N5C[C@@H](c6ccn(C)c(=O)c6)CC56CC6)N4C(=O)[C@@H](NC(=O)c4ccc5ccc([C@@H](F)P(=O)(O)O)cc5c4)C3)c2c1 [Compound 380, ((S)-fluoro(7-(((5S,8S, 10aR)-8-((R)-6-(1-methyl-2-oxo-1,2-dihydropyridin-4-yl)-4-azaspiro[2.4]heptane-4-carbonyl)-3-(5-methylbenzo[d]isoxazole-3-carbonyl)-6-oxodecahydropyrrolo [1,2-a][1,5]diazocin-5-yl)carbamoyl)naphthalen-2-yl)methyl)phosphonic acid] |
| ≤ 0.3 | 1 to 10 | Cc1ccc2onc(C(=O)N3CC[C@H]4CC[C@@H](C(=O)N5C[C@H](c6cc[nH]c(=O)c6)CC56CC6)N4C(=O)[C@@H](NC(=O)c4ccc5ccc(C(F)(F)P(=O)(O)O)cc5c4)C3)c2c1 [Compound 381, (difluoro(7-(((5S,8S, 10aR)-3-(5-methylbenzo[d]isoxazole-3-carbonyl)-6-oxo-8-((S)-6-(2-oxo-1,2-dihydropyridin-4-yl)-4-azaspiro[2.4]heptane-4-carbonyl)decahydropyrrolo [1,2-a][1,5]diazocin-5-yl)carbamoyl)naphthalen-2-yl)methyl)phosphonic acid] |
| ≤ 0.3 | 1 to 10 | Cc1ccc2onc(C(=O)N3CC[C@H]4CC[C@@H](C(=O)N5C[C@H](c6ccn(C)c(=O)c6)CC56CC6)N4C(=O)[C@@H](NC(=O)c4ccc5ccc(C(F)(F)P(=O)(O)O)cc5c4)C3)c2c1 [Compound 382, (difluoro(7-(((5S,8S, 10aR)-8-((S)-6-(1-methyl-2-oxo-1,2-dihydropyridin-4-yl)-4-azaspiro[2.4]heptane-4-carbonyl)-3-(5-methylbenzo[d]isoxazole-3-carbonyl)-6-oxodecahydropyrrolo [1,2-a][1,5]diazocin-5-yl)carbamoyl)naphthalen-2-yl)methyl)phosphonic acid] |
| ≤ 0.3 | 1 to 10 | Cc1ccc2onc(C(=O)N3CC[C@H]4CC[C@@H](C(=O)N5C[C@@H](c6ccn(C)c(=O)c6)CC56CC6)N4C(=O)[C@@H](NC(=O)c4ccc5ccc(C(F)(F)P(=O)(O)O)cc5c4)C3)c2c1 [Compound 383, (difluoro(7-(((5S,8S, 10aR)-8-((R)-6-(1-methyl-2-oxo-1,2-dihydropyridin-4-yl)-4-azaspiro[2.4]heptane-4-carbonyl)-3-(5-methylbenzo[d]isoxazole-3-carbonyl)-6-oxodecahydropyrrolo [1,2-a][1,5]diazocin-5-yl)carbamoyl)naphthalen-2-yl)methyl)phosphonic acid] |
| 0.3 to 3 | > 10 | Cc1ccc2onc(C(=O)N3CC[C@H]4CC[C@@H](C(=O)N5CCOCC5)N4C(=O)[C@@H](NC(=O)c4ccc5c(C#N)cc(CP(=O)(O)O)cc5c4)C3)c2c1 [Compound 384, ((4-cyano-7-(((5S,8S, 10aR)-3-(5-methylbenzo[d]isoxazole-3-carbonyl)-8-(morpholine-4-carbonyl)-6-oxodecahydropyrrolo [1,2-a][1,5]diazocin-5-yl)carbamoyl)naphthalen-2-yl)methyl) phosphonic acid] |
| ≤ 0.3 | 1 to 10 | Cc1ccc2onc(C(=O)N3CC[C@H]4CC[C@@H](C(=O)N5C[C@@H](c6cc[nH]c(=O)c6)CC56CC6)N4C(=O)[C@@H](NC(=O)c4ccc5ccc(C(F)(F)P(=O)(O)O)cc5c4)C3)c2c1 [Compound 385, (difluoro(7-(((5S,8S, 10aR)-3-(5-methyl-benzo[d]isoxazole-3-carbonyl)-6-oxo-8-((R)-6-(2-oxo-1,2-dihydro-pyridin-4-yl)-4-azaspiro [2.4]heptane-4-carbonyl)decahydro-pyrrolo[1,2-a][1,5]diazocin-5-yl)carbamoyl)naphthalen-2-yl)methyl) phosphonic acid] |
| ≤ 0.3 | > 10 | Cc1ccc2onc(C(=O)N3CC[C@H]4CC[C@@H](C(=O)N5C(=O)N(c6cccnc6)C(=O)C56CC6)N4C(=O)[C@@H](NC(=O)c4ccc5ccc([C@H](F)P(=O)(O)O)cc5c4)C3)c2c1 [Compound 386, ((R)-(7-(((5S,8S, 10aR)-8-(5,7-dioxo-6-(pyridin-3-yl)-4,6-diazaspiro[2.4]heptane-4-carbonyl)-3-(5-methylbenzo[d]isoxazole-3-carbonyl)-6-oxodecahydropyrrolo [1,2-a][1,5]diazocin-5-yl)carbamoyl)naphthalen-2-yl)fluoromethyl)phosphonic acid] |
| ≤ 0.3 | > 10 | Cc1ccc2onc(C(=O)N3CC[C@H]4CC[C@@H](C(=O)N5C[C@@H](c6ccn(C)c(=O)c6)CC56CC6)N4C(=O)[C@@H](NC(=O)c4ccc5ccc([C@H](F)P(=O)(O)O)cc5c4)C3)c2c1 [Compound 387, ((R)-fluoro(7-(((5S, 8S,10aR)-8-((R)-6-(1-methyl-2-oxo-1,2-dihydropyridin-4-yl)-4-azaspiro[2.4]heptane-4-carbonyl)-3-(5-methylbenzo[d]isoxazole-3-carbonyl)-6-oxodecahydro-pyrrolo[1,2-a][1,5]diazocin-5-yl)carbamoyl)naphthalen-2-yl)methyl) phosphonic acid] |
| 0.3 to 3 | > 10 | COc1cc(C(=O)N[C@H]2CN(C(=O)c3noc4ccc(C)cc34)CC[C@H]3CC[C@@H](C(=O)N4CCOCC4)N3C2=O)cc2cc(CP(=O)(O)O)ccc12 [Compound 388, ((5-methoxy-7-(((5S, 8S,10aR)-3-(5-methylbenzo[d]isoxazole-3-carbonyl)-8-(morpholine-4-carbonyl)-6-oxodecahydropyrrolo [1,2-a][1,5]diazocin-5-yl)carbamoyl)naphthalen-2-yl)methyl) phosphonic acid] |

From US20250179103A1, “6-OXODECAHYDROPYRROLO[1,2-A][1,5]DIAZOCINE AND 6-OXODECAHYDRO-4H-PYRROLO[2,1-D][1,5]THIAZOCINE DERIVATIVES AS STAT3 AND STAT6 MODULATORS FOR THE TREATMENT OF CANCER AND INFLAMMATORY CONDITIONS” (Recludix Pharma, Inc., priority 2022, published 2025)
